Data on 5 compounds can be found in ChEMBL document CHEMBL5465560, “Selectivity Literature for EUbOPEN Chemogenomic Library” (2024).

Test [1] deals with T1, Dual specificity tyrosine-phosphorylation-regulated kinase 2 (Homo sapiens) (UniProt Q92630).
T1 sequence (whole entry): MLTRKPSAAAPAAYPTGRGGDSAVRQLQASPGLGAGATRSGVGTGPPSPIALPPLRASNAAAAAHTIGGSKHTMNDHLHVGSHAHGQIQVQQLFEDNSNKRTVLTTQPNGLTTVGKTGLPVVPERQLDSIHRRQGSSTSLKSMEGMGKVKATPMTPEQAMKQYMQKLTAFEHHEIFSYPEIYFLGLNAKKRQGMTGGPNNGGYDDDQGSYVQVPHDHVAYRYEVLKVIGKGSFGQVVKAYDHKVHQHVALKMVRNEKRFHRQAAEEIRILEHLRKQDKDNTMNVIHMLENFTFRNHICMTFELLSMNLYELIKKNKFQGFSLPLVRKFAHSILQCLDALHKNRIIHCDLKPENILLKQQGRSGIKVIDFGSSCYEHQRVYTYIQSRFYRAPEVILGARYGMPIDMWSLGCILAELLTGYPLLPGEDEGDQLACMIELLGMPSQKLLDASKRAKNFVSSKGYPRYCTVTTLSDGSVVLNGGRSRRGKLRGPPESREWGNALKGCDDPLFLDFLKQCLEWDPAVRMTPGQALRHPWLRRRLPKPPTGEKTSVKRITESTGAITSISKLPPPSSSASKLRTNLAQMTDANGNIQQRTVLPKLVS
In words: Selectivity interaction (KinomeScan (DiscoverX)) EUB0000607a DYRK2. The conditions noted are these: at 10 µM.

Test [2] has as its target Epithelial discoidin domain-containing receptor 1 (Homo sapiens) (UniProt Q08345). The conditions noted are these: at 10 µM.
Test [3] concerns the target T2, Interleukin-1 receptor-associated kinase 3 (Homo sapiens) (UniProt Q9Y616).
T2 sequence (whole entry): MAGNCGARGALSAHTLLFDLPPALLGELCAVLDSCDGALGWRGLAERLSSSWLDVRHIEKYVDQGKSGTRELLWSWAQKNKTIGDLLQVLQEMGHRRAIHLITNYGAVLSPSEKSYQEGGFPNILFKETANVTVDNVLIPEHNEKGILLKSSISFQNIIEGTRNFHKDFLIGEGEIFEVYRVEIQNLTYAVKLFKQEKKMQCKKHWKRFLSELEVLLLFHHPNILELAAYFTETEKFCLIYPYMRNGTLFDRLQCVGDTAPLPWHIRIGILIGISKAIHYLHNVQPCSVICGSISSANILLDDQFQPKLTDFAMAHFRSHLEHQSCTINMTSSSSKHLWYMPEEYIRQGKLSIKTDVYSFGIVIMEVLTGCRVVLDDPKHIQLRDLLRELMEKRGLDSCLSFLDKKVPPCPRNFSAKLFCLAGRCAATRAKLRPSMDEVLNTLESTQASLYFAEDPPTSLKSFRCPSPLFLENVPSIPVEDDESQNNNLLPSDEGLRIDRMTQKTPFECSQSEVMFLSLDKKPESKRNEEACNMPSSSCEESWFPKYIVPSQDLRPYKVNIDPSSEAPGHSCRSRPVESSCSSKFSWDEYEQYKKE
In words: Selectivity interaction (ActivX KiNativ screen (kinase selectivity in THP-1 cell lysates)) EUB0000639a IRAK3. The class given is subcellular. The conditions noted are these: lysate, at 5 µM.

Test [4] deals with Vascular endothelial growth factor receptor 2 (Homo sapiens, UniProt P35968). In words: Selectivity interaction (ProQinase) EUB0000171b KDR.
Test [5] has as its target T3, Serine/threonine-protein kinase LATS1 (Homo sapiens) (UniProt O95835).
T3 sequence (whole entry): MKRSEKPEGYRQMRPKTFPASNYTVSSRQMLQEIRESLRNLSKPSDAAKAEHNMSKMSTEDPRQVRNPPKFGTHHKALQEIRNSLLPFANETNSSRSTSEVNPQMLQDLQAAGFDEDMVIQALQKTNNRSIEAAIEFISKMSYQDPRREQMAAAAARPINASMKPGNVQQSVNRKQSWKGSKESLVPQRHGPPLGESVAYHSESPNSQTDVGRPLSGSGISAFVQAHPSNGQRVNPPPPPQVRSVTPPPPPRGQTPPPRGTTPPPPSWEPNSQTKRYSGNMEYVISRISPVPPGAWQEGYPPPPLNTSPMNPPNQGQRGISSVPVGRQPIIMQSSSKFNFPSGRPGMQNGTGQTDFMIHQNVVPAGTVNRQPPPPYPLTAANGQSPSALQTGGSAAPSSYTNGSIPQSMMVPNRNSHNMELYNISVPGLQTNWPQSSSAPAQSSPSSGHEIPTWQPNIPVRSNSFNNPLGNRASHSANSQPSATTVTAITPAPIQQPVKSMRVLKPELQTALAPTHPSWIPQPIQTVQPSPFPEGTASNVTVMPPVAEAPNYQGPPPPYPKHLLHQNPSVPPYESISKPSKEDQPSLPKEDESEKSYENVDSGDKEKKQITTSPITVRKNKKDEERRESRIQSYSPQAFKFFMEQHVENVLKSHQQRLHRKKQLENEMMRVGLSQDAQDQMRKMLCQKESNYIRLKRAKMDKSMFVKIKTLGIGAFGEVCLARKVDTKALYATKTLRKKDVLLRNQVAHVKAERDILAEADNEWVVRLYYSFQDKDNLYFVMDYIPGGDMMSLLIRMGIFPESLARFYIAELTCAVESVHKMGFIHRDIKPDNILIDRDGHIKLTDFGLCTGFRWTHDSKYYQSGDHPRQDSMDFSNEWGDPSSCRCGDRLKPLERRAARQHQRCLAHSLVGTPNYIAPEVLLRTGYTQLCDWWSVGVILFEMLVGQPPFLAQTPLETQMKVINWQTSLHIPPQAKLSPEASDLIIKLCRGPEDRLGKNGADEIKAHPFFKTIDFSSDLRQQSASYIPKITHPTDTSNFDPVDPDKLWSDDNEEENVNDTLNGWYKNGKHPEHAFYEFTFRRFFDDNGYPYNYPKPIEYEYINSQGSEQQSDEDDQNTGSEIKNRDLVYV
Kind of test: Selectivity interaction (KinomeScan (DiscoverX)) EUB0001079a LATS1. The conditions noted are these: at 1 µM.

Vascular endothelial growth factor receptor 2, sequence (P35968 whole entry): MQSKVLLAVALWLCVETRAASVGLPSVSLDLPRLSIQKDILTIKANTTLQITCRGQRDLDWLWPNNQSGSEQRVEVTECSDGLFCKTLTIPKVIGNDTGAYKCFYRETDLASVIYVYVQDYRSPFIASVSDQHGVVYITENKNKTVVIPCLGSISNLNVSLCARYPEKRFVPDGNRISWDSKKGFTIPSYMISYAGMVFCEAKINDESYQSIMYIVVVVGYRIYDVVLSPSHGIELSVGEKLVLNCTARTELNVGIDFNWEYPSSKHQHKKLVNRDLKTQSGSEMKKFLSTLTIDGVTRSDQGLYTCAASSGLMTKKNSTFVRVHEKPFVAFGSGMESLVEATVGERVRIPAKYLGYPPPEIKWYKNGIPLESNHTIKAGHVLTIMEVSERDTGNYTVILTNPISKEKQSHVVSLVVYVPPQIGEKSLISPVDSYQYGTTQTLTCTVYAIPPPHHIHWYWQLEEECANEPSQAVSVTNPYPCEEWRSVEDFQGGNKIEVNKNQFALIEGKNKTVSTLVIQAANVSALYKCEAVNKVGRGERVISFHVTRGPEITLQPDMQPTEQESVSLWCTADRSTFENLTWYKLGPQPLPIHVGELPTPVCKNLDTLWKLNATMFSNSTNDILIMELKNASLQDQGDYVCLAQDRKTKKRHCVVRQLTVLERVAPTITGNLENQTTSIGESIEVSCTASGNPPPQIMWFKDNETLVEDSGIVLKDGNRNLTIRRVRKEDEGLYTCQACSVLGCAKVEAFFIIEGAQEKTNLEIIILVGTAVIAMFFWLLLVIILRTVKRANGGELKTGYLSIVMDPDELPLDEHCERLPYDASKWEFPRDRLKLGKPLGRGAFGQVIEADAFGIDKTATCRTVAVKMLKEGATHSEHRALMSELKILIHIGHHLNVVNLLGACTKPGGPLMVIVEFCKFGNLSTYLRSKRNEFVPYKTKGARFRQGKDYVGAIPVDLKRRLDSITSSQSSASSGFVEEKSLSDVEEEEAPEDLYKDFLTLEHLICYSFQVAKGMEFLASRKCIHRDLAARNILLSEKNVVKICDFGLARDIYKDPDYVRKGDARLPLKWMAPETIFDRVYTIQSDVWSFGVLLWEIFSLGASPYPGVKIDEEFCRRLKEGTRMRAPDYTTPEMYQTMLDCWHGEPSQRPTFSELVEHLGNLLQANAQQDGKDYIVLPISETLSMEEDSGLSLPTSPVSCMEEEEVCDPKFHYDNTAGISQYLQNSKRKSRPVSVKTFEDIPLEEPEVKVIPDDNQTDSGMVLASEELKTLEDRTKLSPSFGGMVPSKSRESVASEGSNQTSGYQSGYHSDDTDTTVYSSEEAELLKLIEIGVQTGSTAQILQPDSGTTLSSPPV
Epithelial discoidin domain-containing receptor 1 (Homo sapiens), sequence (Q08345 whole entry, the tested form may be a part): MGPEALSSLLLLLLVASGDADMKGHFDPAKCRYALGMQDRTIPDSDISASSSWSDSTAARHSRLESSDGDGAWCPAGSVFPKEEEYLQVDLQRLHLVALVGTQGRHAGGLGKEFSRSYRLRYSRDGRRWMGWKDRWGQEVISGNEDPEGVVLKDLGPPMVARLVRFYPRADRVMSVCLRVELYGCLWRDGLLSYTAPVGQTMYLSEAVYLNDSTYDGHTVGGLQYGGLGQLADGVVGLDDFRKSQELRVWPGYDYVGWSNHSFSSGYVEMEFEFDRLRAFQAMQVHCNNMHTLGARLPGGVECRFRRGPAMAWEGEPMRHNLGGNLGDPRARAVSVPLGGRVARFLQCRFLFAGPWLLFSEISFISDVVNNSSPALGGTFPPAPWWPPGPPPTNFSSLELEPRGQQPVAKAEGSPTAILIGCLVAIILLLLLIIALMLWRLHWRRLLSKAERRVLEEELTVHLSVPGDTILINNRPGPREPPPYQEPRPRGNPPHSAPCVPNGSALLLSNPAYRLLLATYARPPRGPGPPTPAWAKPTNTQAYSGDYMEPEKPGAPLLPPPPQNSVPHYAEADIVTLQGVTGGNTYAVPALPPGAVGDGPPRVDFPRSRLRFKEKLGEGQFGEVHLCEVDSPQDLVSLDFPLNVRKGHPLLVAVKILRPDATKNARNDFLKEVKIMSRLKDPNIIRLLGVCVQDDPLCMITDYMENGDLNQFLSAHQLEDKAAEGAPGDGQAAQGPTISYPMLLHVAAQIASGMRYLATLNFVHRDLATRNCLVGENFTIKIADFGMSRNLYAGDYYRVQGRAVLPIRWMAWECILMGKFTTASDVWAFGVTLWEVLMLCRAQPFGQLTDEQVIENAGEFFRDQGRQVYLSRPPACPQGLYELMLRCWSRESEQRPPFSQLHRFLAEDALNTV

`CNC(=O)Nc1ccc(-c2nc(N3CC4CCC(C3)O4)c3cnn(C4CCC5(CC4)OCCO5)c3n2)cc1` came in with a % of control in test [1] of 90%.
The compound `Cc1cc([C@@H](C)Nc2ccccc2C(=O)O)c2nc(N3CCOCC3)cc(=O)n2c1` [AZD-6482] showed a % of control in test [2] of 100%.
`CC[C@@H]1[C@H](F)C(=O)N[C@@H]1COc1nccc2cc(C(N)=O)c(OC)cc12` [ZIMLOVISERTIB] displayed a % of inhibition in test [3] of 94.3%.
Regarding `C=CC(=O)Nc1cccc(C(=O)Nc2ccc(Nc3cc(-c4[nH]c(SC)nc4C)ccn3)cc2)c1`, the % of control in test [4] (at 1 µM) amounted to 78%; in test [4] (at 5 µM) it was 50%.
In test [5], `Nc1cnc(N2CCc3cc(S(=O)(=O)Nc4c(F)cc(Cl)cc4F)cc(N4CCCC4=O)c32)nc1` [TP-020n] yielded a % of control of 100%.
